Read-outs that look alike come from different tables or passages of the source.
Key:
[1] = target: T1, human adrenergic-α2A receptor (Homo sapiens, UniProt P08913); assay: Radioligand binding experiment for hα2A receptor ([3H]raulwolscine, CHO cell membranes)
T1 construct: expressed in transfected cells; host or cells: CHO cells, stably transfected; membranes
T1 sequence (P08913 1-465): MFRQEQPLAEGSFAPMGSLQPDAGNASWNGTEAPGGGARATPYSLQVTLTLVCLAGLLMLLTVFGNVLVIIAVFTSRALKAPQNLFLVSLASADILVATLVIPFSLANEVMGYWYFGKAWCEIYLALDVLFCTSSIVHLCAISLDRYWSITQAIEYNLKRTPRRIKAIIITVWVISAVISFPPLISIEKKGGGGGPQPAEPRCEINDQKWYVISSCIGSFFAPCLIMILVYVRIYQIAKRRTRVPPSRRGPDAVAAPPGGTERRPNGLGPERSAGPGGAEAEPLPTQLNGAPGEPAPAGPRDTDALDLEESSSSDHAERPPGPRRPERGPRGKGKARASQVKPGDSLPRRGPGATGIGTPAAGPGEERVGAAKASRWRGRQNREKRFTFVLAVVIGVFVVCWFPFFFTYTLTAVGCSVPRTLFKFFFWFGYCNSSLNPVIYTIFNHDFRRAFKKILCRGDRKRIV
Experimental: (§1) The interaction of a compound of Formula (I) with α2C-adrenoceptor receptors was assessed in in vitro radioligand binding experiments. In general, a low concentration of a radioligand with a high binding affinity for a particular receptor or transporter is incubated with a sample of a tissue preparation enriched in a particular receptor or transporter or with a preparation of cells expressing cloned human receptors in a buffered medium. During the incubation, the radioligand binds to the receptor or transporter. When equilibrium of binding is reached, the receptor bound radioactivity is separated from the non-bound radioactivity, and the receptor- or transporter-bound activity is counted. The interaction of the test compounds with the receptor is assessed in competition binding experiments. Various concentrations of the test compound are added to the incubation mixture containing the receptor- or transporter preparation and the radioligand. The test compound in proportion to its binding affinity and its concentration inhibits binding of the radioligand. The radioligand used for hα2A and hα2C receptor binding was [^3H]-raulwolscine.
(§2) CHO cells, stabile transfected with human adrenergic-α2A and α2C receptor cDNA, were cultured in Dulbecco's Modified Eagle's Medium (DMEM)/Nutrient mixture Ham's F12 (ratio 1:1) (Gibco, Gent-Belgium) supplemented with 10% heat inactivated fetal calf serum (Life Technologies, Merelbeke-Belgium) and antibiotics (100 IU/ml penicillin G, 100 μg/ml streptomycin sulphate, 110 μg/ml pyruvic acid and 100 μg/ml L-glutamine). One day before collection, cells were induced with 5 mM sodiumbutyrate. Upon 80-90% of confluence, cells were scraped in phosphate buffered saline without Ca^2+ and Mg^2+ and collected by centrifugation at 1500×g for 10 minutes. The cells were homogenised in Tris-HCl 50 mM using an Ultraturrax homogenizer and centrifuged for 10 minutes at 23,500×g. The pellet was washed once by resuspension and rehomogenization and the final pellet was resuspended in Tris-HCl, divided in 1 ml aliquots and stored at −70° C.
(§3) Membranes were thawed and re-homogenized in incubation buffer (glycylglycine 25 mM, pH 8.0). […] Filters were rinsed extensively with ice-cold rinsing buffer (Tris-HCl 50 mM pH 7.4). Filter-bound radioactivity was determined by scintillation counting in a Topcount (Packard, Meriden, Conn.) and results were expressed as counts per minute (cpm). Non-specific binding was determined in the presence of 1 μM oxymetazoline for the hα2A receptor and 1 μM spiroxatrine for hα2C receptors.
(§4) Data from assays in the presence of compound were calculated as a percentage of total binding measured in the absence of test compound. Inhibition curves, plotting percent of total binding versus the log value of the concentration of the test compound, were automatically generated, and sigmoidal inhibition curves were fitted using non-linear regression. The pIC50 values of test compounds were derived from individual curves.

[2] = target: T2, human adrenergic-α2C receptor (Homo sapiens, UniProt P18825); assay: Radioligand binding experiment for α2C-adrenoceptor ([3H]raulwolscine, CHO cell membranes); conditions: [3H]raulwolscine 1 nM, membranes of CHO cells transfected with human α2C receptor; read-out: h-α2C pIC50 (converted)
T2 construct: expressed in transfected cells; host or cells: CHO cells, stably transfected; membranes
T2 sequence (P18825 1-462): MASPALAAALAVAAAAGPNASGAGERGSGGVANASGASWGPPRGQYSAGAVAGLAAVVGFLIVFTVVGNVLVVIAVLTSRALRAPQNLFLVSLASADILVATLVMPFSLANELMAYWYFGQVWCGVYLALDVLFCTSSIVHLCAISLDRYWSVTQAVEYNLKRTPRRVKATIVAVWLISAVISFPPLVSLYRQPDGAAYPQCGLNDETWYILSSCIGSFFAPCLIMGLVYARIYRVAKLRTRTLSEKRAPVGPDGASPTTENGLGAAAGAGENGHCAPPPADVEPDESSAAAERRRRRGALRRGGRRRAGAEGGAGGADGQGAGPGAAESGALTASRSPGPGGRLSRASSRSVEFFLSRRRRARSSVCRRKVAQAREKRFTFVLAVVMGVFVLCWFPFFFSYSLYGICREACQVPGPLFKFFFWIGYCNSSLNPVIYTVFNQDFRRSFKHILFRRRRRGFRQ
Experimental: as §1, §2, §3, §4

[3] = target: T3, 5HT-Transporter (Homo sapiens, UniProt P31645); assay: Binding experiment for the 5HT-transporter ([3H]paroxetine, human platelet membranes)
T3 construct: Human platelet membranes (Oceanix Biosciences Corporation, Hanover, Md., USA) were thawed; tissue Oceanix Biosciences Corporation; host or cells: human platelet membranes
T3 sequence (P31645 whole entry): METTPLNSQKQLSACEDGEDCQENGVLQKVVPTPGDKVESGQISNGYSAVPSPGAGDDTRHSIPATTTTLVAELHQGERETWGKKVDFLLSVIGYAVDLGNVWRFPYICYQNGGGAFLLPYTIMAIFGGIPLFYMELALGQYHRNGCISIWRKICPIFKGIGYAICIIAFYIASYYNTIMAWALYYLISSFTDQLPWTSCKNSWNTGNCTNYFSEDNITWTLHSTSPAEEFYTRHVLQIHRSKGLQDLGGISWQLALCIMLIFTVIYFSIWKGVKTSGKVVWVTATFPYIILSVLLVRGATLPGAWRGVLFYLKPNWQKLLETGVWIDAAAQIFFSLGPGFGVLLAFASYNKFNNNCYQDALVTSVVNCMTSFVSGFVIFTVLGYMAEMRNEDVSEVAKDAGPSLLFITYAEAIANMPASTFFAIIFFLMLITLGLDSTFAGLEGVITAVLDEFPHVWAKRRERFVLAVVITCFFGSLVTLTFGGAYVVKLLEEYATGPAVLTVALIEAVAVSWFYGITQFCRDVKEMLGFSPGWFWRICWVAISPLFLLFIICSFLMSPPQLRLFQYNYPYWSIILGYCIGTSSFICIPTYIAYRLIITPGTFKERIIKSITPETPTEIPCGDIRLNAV
Experimental: as §1
Human platelet membranes (Oceanix Biosciences Corporation, Hanover, Md., USA) were thawed, diluted in buffer (Tris-HCl 50 mM, 120 mM NaCl and 5 mM KCl) and quickly (max 3 s) homogenised with an Ultraturrax homogenizer. […] Incubation was stopped by rapid filtration of the incubation mixture over GF/B filters, pre-wetted with 0.1% polyethyleneamine, using a Filtermate196 harvester (Packard, Meriden, Conn.). Filters were rinsed extensively with ice-cold buffer and radioactivity on the filters was counted in a Topcount liquid scintillation counter (Packard, Meriden, Conn.). Data were expressed as cpm. Imipramine (at 1 μM final concentration) was used to determine the non-specific binding.
as §4

[4] = [3H]raulwolscine 1 nM, membranes of CHO cells transfected with human α2A receptor, read-out: h-α2A pIC50 (converted)
[5] = [3H]paroxetine 0.5 nM, read-out: h-5HTT pIC50 (converted)

| Structure (SMILES) | IC50 [1, 4] | IC50 [2] | IC50 [3, 5] | IC50 [1] | IC50 ([3]; h-5HTT pIC50, [3H]paroxetine 0.5 nM) |
| --- | --- | --- | --- | --- | --- |
| C=CCn1ccnc(N2CCN(Cc3cccc(-c4ccccc4)c3)CC2)c1=O [Compound 3-4] | 200 nM | 794 nM | – | – | – |
| CC(C)(C)OC(=O)NCCCn1ccnc(NC2CCN(CCCc3ccccc3)CC2)c1=O [Compound 7-2] | 794 nM | 79.4 nM | 3.16 µM | – | – |
| NCc1ccc(Cn2ccnc(N3CCN(CCc4ccccc4)CC3)c2=O)cc1 [Compound 10-1] | 794 nM | 631 nM | > 10 µM | – | – |
| CC(C)(C)OC(=O)NCc1ccc(Cn2ccnc(NC3CCN(CC(c4ccccc4)c4ccccc4)CC3)c2=O)cc1 [Compound 9-4] | 3160 nM | 631 nM | > 10 µM | – | – |
| NCc1ccc(Cn2ccnc(N3CCN(Cc4cccc(-c5ccccc5)c4)CC3)c2=O)cc1 [Compound 3-1] | 79.4 nM | 631 nM | 5.01 µM | – | – |
| O=c1c(NC2CCN(Cc3ccc(-c4ccccc4)cc3)CC2)nccn1Cc1cccc(Br)c1 [Compound 1-7] | 1000 nM | 398 nM | 1 µM | – | – |
| NCc1ccc(Cn2ccnc(NC3CCN(CCc4ccccc4)CC3)c2=O)cc1 [Compound 6-3] | 1260 nM | 398 nM | > 10 µM | – | – |
| O=c1c(N2CCN(CCc3ccccc3)CC2)nccn1C/C=C/c1ccccc1 [Compound 10-6] | 1000 nM | 501 nM | 5.01 µM | – | – |
| CC(C)(C)OC(=O)NCc1ccc(Cn2ccnc(NC3CCN(CCCc4ccccc4)CC3)c2=O)cc1 [Compound 7-3] | 1580 nM | 398 nM | 1.58 µM | – | – |
| O=c1c(NC2CCN(CC(c3ccccc3)c3ccccc3)CC2)nccn1Cc1ccc(Br)cc1 [Compound 9-9] | 1260 nM | 501 nM | 6.31 µM | – | – |
| CN(C)CCCn1ccnc(NC2CCN(Cc3ccc(OCc4ccccc4)cc3)CC2)c1=O [Compound 11-2] | 794 nM | 794 nM | > 10 µM | – | – |
| O=C1c2ccccc2C(=O)N1CCCn1ccnc(N2CCN(Cc3cccc(-c4ccccc4)c3)CC2)c1=O [Compound 3-9] | 1580 nM | 794 nM | 0.794 µM | – | – |
| CN(CCc1ccccc1)C1CCN(c2nccn(CCCN3C(=O)c4ccccc4C3=O)c2=O)CC1 [Compound 8-1] | 1000 nM | 25.1 nM | 3.16 µM | – | – |
| CCCn1ccnc(NC2CCN(CCCc3ccccc3)CC2)c1=O [Compound 7-8] | 794 nM | 501 nM | 5.01 µM | – | – |
| O=c1c(NC2CCN(CC(c3ccccc3)c3ccccc3)CC2)nccn1Cc1cccc(Br)c1 [Compound 9-8] | 1260 nM | 631 nM | 5.01 µM | – | – |
| O=c1c(N2CCN(Cc3cccc(-c4ccccc4)c3)CC2)nccn1Cc1ccco1 [Compound 3-8] | 79.4 nM | 316 nM | – | – | – |
| O=c1c(NC2CCN(Cc3ccc(OCc4ccccc4)cc3)CC2)nccn1Cc1ccc(Br)cc1 [Compound 11-7] | 631 nM | 631 nM | 1.58 µM | – | – |
| O=c1c(N2CCN(CCc3ccccc3)CC2)nccn1Cc1ccc(-c2ccccc2)cc1 [Compound 10-8] | 794 nM | 631 nM | 5.01 µM | – | – |

| Structure (SMILES) | IC50 [1, 4] | IC50 [2] | IC50 [3, 5] | IC50 [1] | IC50 ([3]; h-5HTT pIC50, [3H]paroxetine 0.5 nM) |
| --- | --- | --- | --- | --- | --- |
| O=C1c2ccccc2C(=O)N1CCCn1ccnc(NC2CCN(CCc3ccccc3)CC2)c1=O [Compound 6-6] | 3980 nM | 158 nM | 1.58 µM | – | – |
| CC(C)(C)C(=O)Cn1ccnc(NC2CCN(CCCc3ccccc3)CC2)c1=O [Compound 7-10] | 1260 nM | 316 nM | > 10 µM | – | – |
| O=C1c2ccccc2C(=O)N1CCCn1ccnc(NC2CCN(Cc3ccc(-c4ccccc4)cc3)CC2)c1=O [Compound 1-4] | 631 nM | 126 nM | 0.158 µM | – | – |
| O=c1c(NC2CCN(CCc3ccccc3)CC2)nccn1Cc1ccc(Br)cc1 [Compound 6-9] | 1260 nM | 316 nM | 6.31 µM | – | – |
| O=c1c(NC2CCN(CC(c3ccccc3)c3ccccc3)CC2)nccn1CCN1CCCCC1 [Compound 9-5] | 2510 nM | 794 nM | > 10 µM | – | – |
| NCCCn1ccnc(NC2CCN(CC(c3ccccc3)c3ccccc3)CC2)c1=O [Compound 9-1] | 1000 nM | 501 nM | – | – | – |
| CSCCn1ccnc(NC2CCN(CCCc3ccccc3)CC2)c1=O [Compound 7-15] | 1000 nM | 398 nM | 3.16 µM | – | – |
| O=C1c2ccccc2C(=O)N1CCCn1ccnc(NC2CCN(Cc3ccccc3)CC2)c1=O [Compound 5-5] | 5010 nM | 398 nM | 3.98 µM | – | – |
| NCc1ccc(CN(c2nccn(Cc3ccc(CN)cc3)c2=O)C2CCN(Cc3ccccc3)CC2)cc1 [Compound 5-3] | 1000 nM | – | > 10 µM | – | – |
| COc1ccc(-c2nnc(Cn3ccnc(N4CCN(Cc5cccc(-c6ccccc6)c5)CC4)c3=O)o2)cc1 [Compound 3-10] | 501 nM | – | 6.31 µM | – | – |
| NCCCn1ccnc(NC2CCN(CCc3ccccc3)CC2)c1=O [Compound 6-1] | – | – | – | 3980 nM | > 10 µM |
| NCc1ccc(Cn2ccnc(NC3CCN(Cc4ccccc4)CC3)c2=O)cc1 [Compound 5-1] | – | – | 7.94 µM | – | – |
| NCc1ccc(Cn2ccnc(NC3CCN(CCc4ccccc4)CC3)c2=O)cc1 [Compound 6-2] | – | – | 3.98 µM | – | – |
| O=c1c(N2CCN(Cc3ccccc3)CC2)nccn1Cc1ccc2ccccc2c1 [Compound 10-9] | 126 nM | 794 nM | – | – | – |
| O=c1c(NC2CCN(Cc3ccccc3)CC2)nccn1CCN1CCCCC1 [Compound 5-4] | 3160 nM | – | > 10 µM | – | – |
| O=c1c(N2CCN(Cc3cccc(-c4ccccc4)c3)CC2)nccn1Cc1ccc2ccccc2c1 [Compound 3-7] | 200 nM | – | 5.01 µM | – | – |
| O=C(Cn1ccnc(N2CCN(CCc3ccccc3)CC2)c1=O)c1ccccc1 [Compound 10-7] | 2000 nM | – | > 10 µM | – | – |
| CC(C)(C)OC(=O)NCc1ccc(Cn2ccnc(N3CCN(CCc4ccccc4)CC3)c2=O)cc1 [Compound 10-3] | 794 nM | 316 nM | – | – | – |
